The text below walks through data of ChEMBL document CHEMBL2157907, “Optimization of anti-Trypanosoma cruzi oxadiazoles leads to identification of compounds with efficacy in infected mice” (Bioorg Med Chem, 2012).

Data set [1] can be described thus: Cytotoxicity against BALB/c mouse splenocytes after 24 hrs by [3H]-thymidine incorporation assay. In kind it is cell-based, Splenocyte. As to conditions: read-out: LC50.
Data set [2] concerns the target Cruzipain (Trypanosoma cruzi) (UniProt P25779). Description: Inhibition of Trypanosoma cruzi cruzain using Z-Phe-Arg-aminomethylcoumarin as substrate at 100 uM after 10 mins.
Data set [3] has as its system Trypanosoma cruzi. Description: Antitrypanosomal activity against trypomastigotes of Trypanosoma cruzi Y infected in rhesus monkey LLC-MK2 cells assessed parasite viability after 24 hrs. The class given is functional, organism-based. As to conditions: LLC-MK2, 24 h.
Data set [4] has as its system Trypanosoma cruzi. Nature of the data set: Antitrypanosomal activity against trypomastigotes of Trypanosoma cruzi Y infected in BALB/c mouse assessed as reduction of parasite level in blood at 100 mg/kg, po administered after 5 days of postinfection qd for 5 days. On the set-up: dose 100 mg/kg. The class given is functional, organism-based.
For data set [5], the system named is Trypanosoma cruzi. Nature of the data set: Antitrypanosomal activity against epimastigotes of Trypanosoma cruzi Y after 5 days. In kind it is functional, organism-based. Conditions: 120 h.
In another data set the target is Cruzipain (Trypanosoma cruzi, UniProt P25779). Description: Inhibition of Trypanosoma cruzi cruzain using Z-Phe-Arg-aminomethylcoumarin as substrate after 10 mins.

Molecules are shown by their SMILES. Active and inactive are the calls of the source. The rule behind the calls is not given here. Some results are limits rather than exact numbers.

Chain of Cruzipain (Trypanosoma cruzi) (P25779 123-467 limits assumed): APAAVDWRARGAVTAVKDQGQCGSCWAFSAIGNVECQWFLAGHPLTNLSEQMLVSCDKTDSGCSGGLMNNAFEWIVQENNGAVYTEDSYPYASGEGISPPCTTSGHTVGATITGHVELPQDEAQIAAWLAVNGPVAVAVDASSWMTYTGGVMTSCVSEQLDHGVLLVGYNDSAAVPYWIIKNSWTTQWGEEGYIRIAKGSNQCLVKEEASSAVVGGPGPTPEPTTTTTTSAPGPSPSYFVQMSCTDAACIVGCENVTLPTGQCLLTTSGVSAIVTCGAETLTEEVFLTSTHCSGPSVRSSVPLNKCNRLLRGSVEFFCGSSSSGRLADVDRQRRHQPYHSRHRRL
Chain of Cruzipain (P25779 whole entry): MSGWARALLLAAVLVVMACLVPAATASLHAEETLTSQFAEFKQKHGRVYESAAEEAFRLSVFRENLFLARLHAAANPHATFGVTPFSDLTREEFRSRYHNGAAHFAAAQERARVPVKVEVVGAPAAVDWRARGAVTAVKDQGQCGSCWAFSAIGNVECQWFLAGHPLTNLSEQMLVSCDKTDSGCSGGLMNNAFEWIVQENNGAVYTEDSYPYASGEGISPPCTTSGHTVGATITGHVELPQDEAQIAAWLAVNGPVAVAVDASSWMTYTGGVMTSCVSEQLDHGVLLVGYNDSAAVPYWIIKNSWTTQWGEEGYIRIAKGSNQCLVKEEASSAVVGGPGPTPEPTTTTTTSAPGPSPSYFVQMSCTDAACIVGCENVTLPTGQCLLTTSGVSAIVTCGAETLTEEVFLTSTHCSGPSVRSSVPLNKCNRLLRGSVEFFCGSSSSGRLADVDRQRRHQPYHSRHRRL

As for `O=C(N/N=C/c1ccc2c(c1)OCO2)c1nc(-c2ccc([N+](=O)[O-])cc2)no1`, in data set [1], the CC50 at 24 h was above 100 µg/mL.

For orientation: inhibition means the drop in the measured response relative to a control, in per cent. In data set [2], `COc1ccc(-c2noc(C(=O)N/N=C/c3ccc(O)c(OC)c3)n2)cc1` gave an inhibition of 35%. Further, the CC50 at 24 h in data set [1] was above 100 µg/mL.

In data set [2], `COc1cc(/C=N/NC(=O)c2nc(-c3ccccc3)no2)ccc1O` came in with an inhibition of 47%. Besides, the CC50 at 24 h in data set [1] was above 100 µg/mL.

`O=C(N/N=C/c1ccc2c(c1)OCO2)c1nc(-c2ccc(O)cc2)no1` displayed an inhibition in data set [2] of 17%. In addition, in data set [1], the CC50 at 24 h was above 100 µg/mL.

One may read the IC50 as the concentration needed to halve the response being measured. As for `O=C(Cn1ccnc1[N+](=O)[O-])NCc1ccccc1` [BENZNIDAZOLE], the IC50 in the data set on Trypanosoma cruzi [3] amounted to 11.3 µM; in the data set with Trypanosoma cruzi [5], 7.5 µM. Further, in the data set on Trypanosoma cruzi [4], the outcome was Active.

For `COc1cc(/C=N/NC(=O)c2nc(-c3ccc(Br)cc3)no2)ccc1O`, it took 0.2 µM to reach half-maximal inhibition at Cruzipain (IC50). In data set [2], this compound yielded an inhibition of 100%. In addition, in data set [1], the CC50 at 24 h is above 100 µg/mL.

In the case of `COc1cc(/C=N/NC(=O)c2nc(-c3ccc([N+](=O)[O-])cc3)no2)ccc1O`, in data set [2], the inhibition stood at 47%. For the same compound, the CC50 at 24 h in data set [1] was above 100 µg/mL.

Turning to `COc1cc(/C=N/NC(=O)c2nc(-c3ccc(C)cc3)no2)ccc1O`, the inhibition in data set [2] was found to be 14%. For the same compound, the CC50 at 24 h in data set [1] is above 100 µg/mL.

The compound `COc1cc(/C=N/NC(=O)c2nc(-c3ccc(Cl)cc3)no2)ccc1O` showed an IC50 against Cruzipain of 0.04 µM. In data set [2], this compound had an inhibition of 92%. In addition, the CC50 at 24 h in data set [1] was above 100 µg/mL.
